Assays:
HepG2 cell line = experiment: In vitro toxicity study on HepG2 cell line (resazurin, viability and IC50); assay type: cell-based, human; conditions: for IC50: Homo sapiens, lipid toxicity, HepG2, 48 h post-treatment, 6.25-800 μM, read-out: IC50 value, μM (on HepG2 cell)
Outline: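 HepG2 cells (1000/well) were treated after overnight incubation with lipids at 6.25–800 μM for 48 h. Viability was read by resazurin fluorescence (530/580 nm) after 5 h at 37 °C, relative to ethanol vehicle controls. IC50 values came from concentration-response curves.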

HeLa cells = experiment: Cell viability assessment with resazurin assay (Method A); assay type: cell-based; conditions: human
Outline: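 HeLa cells after Luc mRNA LNP transfection were incubated 50 min at 37 °C with 0.025 mg/ml resazurin in DMEM/F12 with 10% FCS. Resorufin fluorescence was read at ex 540/em 610 nm, background-subtracted, and expressed as percent of OptiMEM-only controls.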

[1] = HepG2 cells, 6.25 μM lipid, 48 h post-treatment, resazurin, relative to ethanol vehicle controls
[2] = HepG2 cells, 12.5 μM lipid, 48 h post-treatment, resazurin, relative to ethanol vehicle controls
[3] = HepG2 cells, 50 μM lipid, 48 h post-treatment, resazurin, relative to ethanol vehicle controls
[4] = HepG2 cells, 100 μM lipid, 48 h post-treatment, resazurin, relative to ethanol vehicle controls
[5] = HepG2 cells, 200 μM lipid, 48 h post-treatment, resazurin, relative to ethanol vehicle controls
[6] = HepG2 cells, 400 μM lipid, 48 h post-treatment, resazurin, relative to ethanol vehicle controls
[7] = HepG2 cells, 800 μM lipid, 48 h post-treatment, resazurin, relative to ethanol vehicle controls
[8] = HepG2 cells, 25 μM lipid, 48 h post-treatment, resazurin, relative to ethanol vehicle controls

CCCCCCCC/C=C\CCCCCCCC(OCCCCCCCCCCCC1CCCCC1)O[Si](C)(C)OCCCCCCN(CCO)CCO (stereo not shown) [Example 74, (Z)-25-cyclohexyl-13-(heptadec-8-en-1-yl)-3-(2-hydroxyethyl)-11,11-dimethyl-10,12,14-trioxa-3-aza-11-silapentacosan-1-ol]
Viability (%) at different lipid concentrations, mean (HepG2 cell line; [1]): 101.5% | Viability (%) at different lipid concentrations, mean (HepG2 cell line; [2]): 100.8% | Viability (%) at different lipid concentrations, mean (HepG2 cell line; [3]): 112.5% | Viability (%) at different lipid concentrations, mean (HepG2 cell line; [4]): 121.9% | Viability (%) at different lipid concentrations, mean (HepG2 cell line; [5]): 117.3% | Viability (%) at different lipid concentrations, mean (HepG2 cell line; [6]): 103.1% | Viability (%) at different lipid concentrations, mean (HepG2 cell line; [7]): 93.8% | IC50 (HepG2 cell line; resazurin): > 800 µM | Viability (%) at different lipid concentrations, mean (HepG2 cell line; human, 48 h, 25 μM): 107.8% | Cell Viability % (Average metabolic rate over all doses, Resazurin) (HeLa cells): 107%

CCCCCCCC/C=C\CCCCCCCC(OCCC(C)CCCC(C)CCCC(C)CCCC(C)C)O[Si](C)(C)OCCCCCCN(CCO)CCO (stereo not shown) [Example 75, (Z)-13-(heptadec-8-en-1-yl)-3-(2-hydroxyethyl)-11,11,17,21,25,29-hexamethyl-10,12,14-trioxa-3-aza-11-silatriacontan-1-ol]
Viability (%) at different lipid concentrations, mean (HepG2 cell line; [1]): 110.3% | Viability (%) at different lipid concentrations, mean (HepG2 cell line; [2]): 109.2% | Viability (%) at different lipid concentrations, mean (HepG2 cell line; [8]): 105.7% | Viability (%) at different lipid concentrations, mean (HepG2 cell line; [3]): 104.5% | Viability (%) at different lipid concentrations, mean (HepG2 cell line; [4]): 102.8% | Viability (%) at different lipid concentrations, mean (HepG2 cell line; [5]): 112.9% | Viability (%) at different lipid concentrations, mean (HepG2 cell line; [6]): 102.4% | Viability (%) at different lipid concentrations, mean (HepG2 cell line; [7]): 90.2% | IC50 (HepG2 cell line; resazurin): > 800 µM | Cell Viability % (Average metabolic rate over all doses, Resazurin) (HeLa cells): 120%

CCCCCCCC/C=C\CCCCCCCC(OCCCCCCCCCCCCCCC(C)C)O[Si](C)(C)OCCCCCCN(CCO)CCO (stereo not shown) [Example 76, (Z)-13-(heptadec-8-en-1-yl)-3-(2-hydroxyethyl)-11,11,29-trimethyl-10,12,14-trioxa-3-aza-11-silatriacontan-1-ol]
Viability (%) at different lipid concentrations, mean (HepG2 cell line; [1]): 101.9% | Viability (%) at different lipid concentrations, mean (HepG2 cell line; [2]): 100.5% | Viability (%) at different lipid concentrations, mean (HepG2 cell line; [8]): 98.5% | Viability (%) at different lipid concentrations, mean (HepG2 cell line; [3]): 100.8% | Viability (%) at different lipid concentrations, mean (HepG2 cell line; [4]): 112.3% | Viability (%) at different lipid concentrations, mean (HepG2 cell line; [5]): 103.8% | Viability (%) at different lipid concentrations, mean (HepG2 cell line; [6]): 77.7% | Viability (%) at different lipid concentrations, mean (HepG2 cell line; [7]): 70.0% | IC50 (HepG2 cell line; resazurin): > 800 µM | Cell Viability % (Average metabolic rate over all doses, Resazurin) (HeLa cells): 110%

CCCCC/C=C\C/C=C\CCCCCCCCOC(CCCCCCC/C=C\C/C=C\CCCCC)O[Si](C)(C)OCCCCCCN(C)[C@H](CO)Cc1ccccc1 (stereo partly drawn) [Example 77, (2S,23Z,26Z)-2-benzyl-13-((8Z,11Z)-heptadeca-8,11-dien-1-yl)-3,11,11-trimethyl-10,12,14-trioxa-3-aza-11-siladotriaconta-23,26-dien-1-ol]
Viability (%) at different lipid concentrations, mean (HepG2 cell line; [1]): 96.2% | Viability (%) at different lipid concentrations, mean (HepG2 cell line; [2]): 99.9% | Viability (%) at different lipid concentrations, mean (HepG2 cell line; [8]): 101.0% | Viability (%) at different lipid concentrations, mean (HepG2 cell line; [3]): 103.7% | Viability (%) at different lipid concentrations, mean (HepG2 cell line; [4]): 100.6% | Viability (%) at different lipid concentrations, mean (HepG2 cell line; [5]): 100.5% | Viability (%) at different lipid concentrations, mean (HepG2 cell line; [6]): 101.1% | Viability (%) at different lipid concentrations, mean (HepG2 cell line; [7]): 73.8% | IC50 (HepG2 cell line; resazurin): > 800 µM | Cell Viability % (Average metabolic rate over all doses, Resazurin) (HeLa cells): 112%
